Reference: patent publication US11708391B2, “Rapaglutins, novel inhibitors of GLUT and use thereof” (The Johns Hopkins University, priority 2016, dated 2023)
Where two headings read alike, the source gives them in different places.

Experiments:
HEK 293T = test: flow cytometric cell cycle analysis in HEK 293T; assay type: cell-based; details: 5 μM, 24 h
Method: FIGS. 25A-25C. A18 and E11 inhibit cell cycle progression in the S phase. HEK 293T were incubated with DMSO (a), 5 μM A18 (b) or 5 μM E11 (c) for 24 h before they were harvested for cell cycle analysis.

HEK 293T FLAG-Glut1 = test: alamar blue assay, HEK 293T Glut1 overexpression cells; assay type: cell-based; details: for IC50: HEK 293T FLAG-Glut1
Text: FIGS. 20A-20C. E11 is a specific inhibitor of Glut1. (a) Glut1 and Glut3 protein levels of wild type, Glut1 and Glut3 overexpression cells analyzed by western blotting. (b)(c) Inhibition of cell proliferation in HEK293T, Glut1 and Glut3 overexpression cells by A18 and E11.
(§1) Up to now, at least 14 different isoforms of GLUTs have been identified in human cells. It was then asked whether A18 and E11 are specific inhibitors of GLUT1. To answer this question, colon cancer DLD-1 wild type and GLUT1 gene knock out cell lines were chosen as a cell model (FIG. 4a). […] GLUTs that are most relevant to cancer are Glut1 and Glut3. To obtain additional evidence, Glut1 and Glut3 in HEK 293T cells were overexpressed and an alamar blue cell viability assay was performed again. […] (see FIGS. 4, 19, 20, 26; Table 4).

breast cancer HCC1954 = test: alamar blue assay, HCC1954; assay type: cell-based, human
Text: (§2) Dose-dependent inhibition of cell proliferation by A18 and E11 was next evaluated in several other human cancer cell lines, including breast cancer HCC1954, pancreatic cancer PANC10.05, leukemia Jurkat T and colon cancer RKO (FIGS. 1b and 1c). […] (FIGS. 1 and 9; Table 3)

DLD-1 wild type = test: 2-deoxy-D-[3H] glucose uptake in DLD-1 wild type cells; assay type: cell-based
Text: FIGS. 4A-4B. E11 is a specific inhibitor of Glut1. (a) Glut1 protein levels of DLD-1 wild type and knock out cells analyzed by western blotting. (b) Inhibition of 2-deoxy-D-[3H] glucose uptake in DLD-1 wild type and knock out cells by E11 or A18.
as §1

glucose transporters = tested on: T1, glucose transporters; test: 2-deoxy-D-[3H] glucose uptake in A549 cells; assay type: cell-based, human; details: for inhibition of glucose transport: A549 cells, glucose uptake assay
T1 construct: IC50 uptake of 3H-labeled 3-O-methylglucose; other: A549 cells; compared with 3-O-methylglucose uptake; other: A549 cells treated with drugs for 1 min; other: A549 cells, glucose uptake assay; other
Method: FIGS. 2A-2D. Inhibition of Glucose Transport by A18 and E11. (a) Inhibition of 3-O-methyl¬D-[3H] glucose uptake in A549 cells by A18. (b) Inhibition of 3-O-methyl-D-[3H] glucose uptake in A549 cells by E11. (c) Inhibition of 2-deoxy-D-[3H] glucose uptake in A549 […] cells by A18. (d) Inhibition of 2-deoxy-D-[3H] glucose uptake in A549 cells by E11.
FIGS. 16A-16B. Inhibition of Glucose Transport by A18 and E11. Cytochalasin B (10 μM), A18 (3 μM), E11 (3 μM) and DMSO control were used to treated A549 cells for 10 min (a) or 1 min (b), then glucose uptake in the treated cells was measured at 1, 3, 10 and 30 min after the addition of 2-dexoy-D-[^3H] glucose.
Direct action on glucose transporters was measured by monitoring uptake of 3H-labeled 3-O-methylglucose, which is transported by glucose transporters but not metabolized further, allowing the assessment of initial rate of glucose uptake. […] Initial uptake can also be assessed by measuring the uptake of 3H-labeled 2-deoxy-D-glucose, which gets into the cell through glucose transporters and is phosphorylated by hexokinase but cannot be metabolized further due to the lack of oxygen at the second position.

[1] = tested on: pancreatic cancer PANC10.05; test: alamar blue assay, PANC10.05; assay type: cell-based, human; details: PANC 10.05
Text: as §2

leukemia Jurkat T = test: alamar blue assay, Jurkat T; assay type: cell-based, human
Text: as §2

HeLa = test: alamar blue assay, HeLa; assay type: cell-based
Text: as §2

AMPK = test: Western blot, AMPK phosphorylation in HEK 293T; assay type: cell-based
Text: FIGS. 7A-7B. (a) A18 activates AMPK and inhibits S6K in HEK 293T cells. […] (b) A18 and E11 activate AMPK and inhibit S6K in HEK 293T cells.
Whether A18 and E11 treatment affect key cell growth signaling proteins was examined next. […] But it has no effects on the phosphorylation of ERK, AKT or JNK (FIG. 7). As previously reported, AMPK is likely to act as the key link between the ATP reduction and the subsequent cancer cell inhibition. (FIGS. 7 and 23-25). Based on the data reported here, the working model for A18 and E11 was proposed as outlined in FIG. 8. […] These led to upregulation of phosphorylation of AMPK and downregulation of phosphorylation of S6K. […] (FIG. 8)

Compound	additional cells in S phase (HEK 293T)	IC50 (HEK 293T FLAG-Glut1; Homo sapiens) [µM]	IC50 (breast cancer HCC1954; Homo sapiens) [µM]	inhibition of 2-deoxy-D-glucose uptake (DLD-1 wild type)	inhibition of glucose transport (glucose transporters)	IC50 ([1]; Homo sapiens, Panc1005) [µM]	IC50 (leukemia Jurkat T; Homo sapiens) [µM]	IC50 (HeLa; Homo sapiens) [µM]	phosphorylation of AMPK (AMPK)	inhibition in alamar blue cell viability assay (HEK 293T FLAG-Glut1; GLUT1 overexpression HEK 293T cells)	IC50 (HEK 293T FLAG-Glut1) [µM]	IC50 (breast cancer HCC1954) [µM]	glucose uptake inhibition (glucose transporters; A549 cells treated with drugs for 1 min) [%]	IC50 [1] [µM]	IC50 (leukemia Jurkat T) [µM]	IC50 (HeLa) [µM]
CC[C@@H](C)[C@H]1C(=O)NCC(=O)N(C)CC/C=C/C(=O)OCC(C)(C)C(=O)C(=O)N2CCCC[C@H]2C(=O)O[C@H](CCc2ccc(OC)c(OC)c2)c2cccc(c2)NC(=O)CCC(=O)N(C)[C@@H](CC(C)C)C(=O)N[C@H](Cc2ccccc2)C(=O)N1C [A18]	approximately 10%	0.573	0.109	strongly inhibited	significantly inhibit	0.119	0.132	0.281	inducing phosphorylation of AMPK							
Gly-^MSerBu-Nal-^MAla [E11]	approximately 10%			kept inhibitory activity	significantly inhibit				inducing phosphorylation of AMPK	kept partial inhibitory activity	0.658	0.159	50	0.0798	0.251	0.383
